Test results as given in article PMC2680961, “Homologous desensitization of signalling by the alpha (α) isoform of the human thromboxane A2 receptor: A specific role for nitric oxide signalling” (Biochimica et Biophysica Acta, 2007).
Counter-ions that a name gives are not always drawn.

How the values were obtained:
Type in all cases: cell-based
TPα = target: T1, TPα (Homo sapiens, UniProt P21731); test: Intracellular calcium mobilization, HEK.TPα cells
T1 construct: expressed in transfected cells
T1 sequence (P21731 1-343): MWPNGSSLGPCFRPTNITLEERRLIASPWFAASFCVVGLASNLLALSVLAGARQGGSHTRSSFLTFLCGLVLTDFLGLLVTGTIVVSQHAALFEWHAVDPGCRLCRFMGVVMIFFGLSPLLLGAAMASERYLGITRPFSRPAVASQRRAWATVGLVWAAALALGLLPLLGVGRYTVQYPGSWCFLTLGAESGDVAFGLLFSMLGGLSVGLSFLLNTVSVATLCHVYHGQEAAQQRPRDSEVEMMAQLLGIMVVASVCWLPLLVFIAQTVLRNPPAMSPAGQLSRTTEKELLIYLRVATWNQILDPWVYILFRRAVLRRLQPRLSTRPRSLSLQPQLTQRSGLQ
Protocol: (§1) Measurement of intracellular calcium mobilization ([Ca^2+]i) in FURA2/AM preloaded HEK 293 cell lines (2 × 10^6 cells/dish), each transiently co-transfected with pADVA (10 μg), and pCMV:Gαq (25 μg), was carried out as previously described. To investigate the effect of GRK2/βARK1 on TP-mediated [Ca^2+]i mobilization, HEK.TPα or HEK.TPβ cells (2 × 10^6 cells/dish) were co-transfected with pADVA (10 μg), pCMV:Gαq (25 μg) along with pRK5:βARK1^495–689 (25 μg), encoding a dominant negative form of GRK2/βARK1[39]. Approximately 48 h post-transfection, cells were harvested by scraping, washed twice in ice-cold PBS and resuspended in HBSSHB (modified Ca^2+/Mg^2+-free Hank's buffered salt solution, containing […], pH 7.67, 0.1% bovine serum albumin (BSA)) buffer at 10^7 cells/ml and incubated in the dark with 5 μM FURA2/AM for 45 min at 37 °C. Cells were collected by centrifugation (900×g, 5 min), washed once in an equal volume of HBSSHB, and were finally resuspended in HBSSHB buffer at 10^7 cells/ml and kept at room temperature in the dark for 40 min. For each measurement of [Ca^2+]i mobilization, aliquots of cells were diluted to 0.825 × 10^6 cells/ml in HBSSHB, 1 mM CaCl2 and FURA2 fluorescence was recorded (2 ml aliquots of cells) at 37^ °C with gentle stirring with a Perkin Elmer-Cetus LS50-B spectrofluorometer at excitation wavelengths of 340 nm and 380 nm and emission wavelength of 510 nm, respectively.
[…] To assess agonist-mediated homologous desensitization, cells (0.825 × 10^6 cells/ml; 2 ml per assay) were stimulated with 1 μM U46619 (Primary stimulation) or, as a control, with the vehicle for 4 min; thereafter, cells were collected by centrifugation (900×g, 5 min); were washed twice in 2 ml HBSSHB, 1 mM CaCl2; and finally resuspended in 2 ml HBSSHB,1 mM CaCl2 and were left to recover over various time intervals (ranging from 0 to 60 min); thereafter, cells re-stimulated with 1 μM U46619 (Secondary stimulation) and changes in [Ca^2+]i mobilization were monitored as a function of time. To assess the role of protein kinase (PK) A, PKC or PKG on U46619-mediated desensitization of TPα signalling, cells were pre-incubated with the PKA inhibitor H-89 (10 μM), the PKC inhibitor GF 109203X (50 nM) or the PKG inhibitor KT 5823 (50 nM), for 15 min and respective kinase inhibitors were maintained throughout the primary/secondary U46619-stimulations and during the washes.
(§2) The vehicle had no effect on U46619-mediated [Ca^2+]i mobilization. Calibration of the signal was performed in each sample by adding 0.2% Triton X-100 to obtain the maximal fluorescence ratio (Rmax) and then 1 mM EGTA to obtain the minimal fluorescence ratio (Rmin). The ratio of the fluorescence at 340 nm to that at 380 nm is a measure of [Ca^2+]i, which assumes a Kd of 225 nM Ca^2+ for FURA2/AM. The results presented in the figures are representative data from at least three or four independent experiments and are plotted as changes in Ca^2+i mobilized (Δ[Ca^2+]i (nM)) as a function of time (s) upon ligand stimulation. Changes in [Ca^2+]i mobilization were determined by measuring peak rises in [Ca^2+]i mobilized (Δ[Ca^2+]i) and were calculated as mean changes in Δ[Ca^2+]i ± S.E.M. (nM).

TP^Δ328 = target: T2, TP^Δ328 (Homo sapiens, UniProt P21731); test: Intracellular calcium mobilization, HEK.TP^Δ328 cells; conditions: HEK.TP^Δ328
T2 construct: expressed in transfected cells
T2 sequence (P21731 1-328): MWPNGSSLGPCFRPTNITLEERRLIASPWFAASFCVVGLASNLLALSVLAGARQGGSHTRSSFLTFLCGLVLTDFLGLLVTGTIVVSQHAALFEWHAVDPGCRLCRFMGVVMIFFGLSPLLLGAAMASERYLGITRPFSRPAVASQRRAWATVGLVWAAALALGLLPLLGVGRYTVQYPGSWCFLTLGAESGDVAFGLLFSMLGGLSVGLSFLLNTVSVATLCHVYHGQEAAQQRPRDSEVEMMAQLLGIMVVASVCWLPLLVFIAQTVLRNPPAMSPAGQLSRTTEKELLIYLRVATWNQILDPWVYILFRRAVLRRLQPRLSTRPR
Protocol: as §1
(§3) Cells were stimulated with the TP agonist U46619 (1 μM) and changes in [Ca^2+]i mobilization were monitored as a function of time. To assess agonist-mediated homologous desensitization, cells (0.825 × 10^6 cells/ml; 2 ml per assay) were stimulated with 1 μM U46619 (Primary stimulation) or, as a control, with the vehicle for 4 min; thereafter, cells were collected by centrifugation (900×g, 5 min); were washed twice in 2 ml HBSSHB, 1 mM CaCl2; and finally resuspended in 2 ml HBSSHB,1 mM CaCl2 and were left to recover over various time intervals (ranging from 0 to 60 min); thereafter, cells re-stimulated with 1 μM U46619 (Secondary stimulation) and changes in [Ca^2+]i mobilization were monitored as a function of time. To assess the role of protein kinase (PK) A, PKC or PKG on U46619-mediated desensitization of TPα signalling, cells were pre-incubated with the PKA inhibitor H-89 (10 μM), the PKC inhibitor GF 109203X (50 nM) or the PKG inhibitor KT 5823 (50 nM), for 15 min and respective kinase inhibitors were maintained throughout the primary/secondary U46619-stimulations and during the washes.
as §2

TPβ [1] = target: T3, TPβ (Homo sapiens, UniProt P21731); test: Intracellular calcium mobilization, HEK.TPβ cells
T3 construct: expressed in transfected cells
Protocol: as §1, §3, §2

TPβ [2] = target: T3, TPβ; test: Intracellular calcium mobilization, HEK.TPβ cells; conditions: inhibitor pre-incubated 15 min, primary/secondary U46619 stimulation

T3 sequence (P21731 1-407 isoform P21731-2): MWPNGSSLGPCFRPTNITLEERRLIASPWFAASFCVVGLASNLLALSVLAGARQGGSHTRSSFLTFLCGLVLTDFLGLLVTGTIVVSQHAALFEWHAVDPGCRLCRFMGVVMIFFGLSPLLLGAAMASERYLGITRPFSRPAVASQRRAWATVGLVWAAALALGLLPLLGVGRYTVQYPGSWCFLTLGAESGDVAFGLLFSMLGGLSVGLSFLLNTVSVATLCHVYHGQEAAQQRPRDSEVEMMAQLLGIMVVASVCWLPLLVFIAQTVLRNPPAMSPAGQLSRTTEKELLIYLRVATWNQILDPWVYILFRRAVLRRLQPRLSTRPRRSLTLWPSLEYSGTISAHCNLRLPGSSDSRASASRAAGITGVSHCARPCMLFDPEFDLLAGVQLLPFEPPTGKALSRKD

Q: With `CN(C)CCCn1cc(C2=C(c3c[nH]c4ccccc34)C(=O)NC2=O)c2ccccc21` [GF 109203X, 2-[1-(3-dimethylaminopropyl)-1H-indol-3-yl]-3-(1H-indol-3-yl)-maleimide] as the molecule, how does the “Δ[Ca2+]i, U46619-induced” value (TPα; HEK.TPα, primary 1 μM U46619 in presence of 50 nM GF 109203X) read?
A: 250 ± 12 nM

Q: And the “Δ[Ca2+]i, U46619-induced” value (TPα; HEK.TPα, secondary 1 μM U46619 at 15 min in presence of 50 nM GF 109203X)?
A: 90 ± 8 nM

Q: And the “secondary U46619 [Ca2+]i response relative to primary response” value (TPα; TPα, in presence of GF 109203X (50 nM))?
A: 36%

Q: What about the “Δ[Ca2+]i, U46619-induced” value (TP^Δ328; primary 1 μM U46619 in presence of 50 nM GF 109203X) of the same molecule?
A: 200 ± 9.8 nM

Q: And the “Δ[Ca2+]i, U46619-induced” value (TP^Δ328; secondary 1 μM U46619 at 15 min in presence of 50 nM GF 109203X)?
A: 200 ± 12 nM

Q: How did the “effect of inhibitor on [Ca2+]i mobilization in response to primary or secondary U46619” value (TPα; HEK.TPα, H-89 10 μM pre-incubation) turn out when `Cl.Cl.O=S(=O)(NCCNCC=Cc1ccc(Br)cc1)c1cccc2cnccc12` [H-89, N-[2-((p-bromocinnamyl)amino)ethyl]-5-isoquino-linesulfonamide, 2HCL] was run?
A: no significant effect

Q: What about the “Δ[Ca2+]i, U46619-induced” value (TPα; HEK.TPα, primary 1 μM U46619 in presence of 10 μM H-89) of the same molecule?
A: 220 ± 9.2 nM

Q: What about the “Δ[Ca2+]i, U46619-induced” value (TPα; HEK.TPα, secondary 1 μM U46619 at 15 min in presence of 10 μM H-89) of the same molecule?
A: 0 nM

Q: And the “effect of inhibitor on [Ca2+]i mobilization in response to primary or secondary U46619” value (TP^Δ328; H-89 10 μM pre-incubation)?
A: no significant effect

Q: And the “Δ[Ca2+]i, U46619-induced” value (TP^Δ328; primary 1 μM U46619 in presence of 10 μM H-89)?
A: 180 ± 10 nM

Q: What about the “Δ[Ca2+]i, U46619-induced” value (TP^Δ328; secondary 1 μM U46619 at 15 min in presence of 10 μM H-89) of the same molecule?
A: 165 ± 8 nM

Q: Which “Δ[Ca2+]i, U46619-induced” value (TPα; HEK.TPα, primary 1 μM U46619 in presence of 1 μM L-NAME) does the source give for `COC(=O)[C@@H](N)CCCNC(N)=N[N+](=O)[O-]` [L-NAME, NG-Nitro-L-arginine Methyl Ester, Hydrochloride] here?
A: 200 ± 9 nM

Q: What about the “Δ[Ca2+]i, U46619-induced” value (TPα; HEK.TPα, secondary 1 μM U46619 at 15 min in presence of 1 μM L-NAME) of the same molecule?
A: 80 ± 5.9 nM

Q: What about the “Δ[Ca2+]i, U46619-induced” value (TPβ [1]; primary 1 μM U46619 in presence of 1 μM L-NAME) of the same molecule?
A: 220 ± 40 nM

Q: What about the “Δ[Ca2+]i, U46619-induced” value (TPβ [1]; secondary 1 μM U46619 at 15 min in presence of 1 μM L-NAME) of the same molecule?
A: 0 nM

Q: What about the “effect of inhibitor on U46619-induced [Ca2+]i mobilization by TPβ” value (TPβ [2]) of the same molecule?
A: no significant effect

Q: With `O=C1C(Nc2ccccc2)=CC(=O)c2ncccc21` [LY 83583, 6-Anilino-5,8-quinolinequinone] as the molecule, how does the “Δ[Ca2+]i, U46619-induced” value (TPα; HEK.TPα, primary 1 μM U46619 in presence of 1 μM LY 83583) read?
A: 210 ± 12 nM

Q: And the “Δ[Ca2+]i, U46619-induced” value (TPα; HEK.TPα, secondary 1 μM U46619 at 15 min in presence of 1 μM LY 83583)?
A: 58 ± 6 nM

Q: What about the “Δ[Ca2+]i, U46619-induced” value (TPβ [1]; primary 1 μM U46619 in presence of 1 μM LY 83583) of the same molecule?
A: 185 ± 26 nM

Q: What about the “Δ[Ca2+]i, U46619-induced” value (TPβ [1]; secondary 1 μM U46619 at 15 min in presence of 1 μM LY 83583) of the same molecule?
A: 0 nM

Q: And the “effect of inhibitor on U46619-induced [Ca2+]i mobilization by TPβ” value (TPβ [2])?
A: no significant effect
